Assay results as given in US5599548A, “Skin care compositions containing fatty acid amides and retinol or retinyl ester” (priority 1995, dated 1997).
Entries after “also recorded” stand apart in the source; their conditions may differ. Where two headings read alike, the source gives them in different places.

Tests used:
Human keratinocytes = test: 3H-Thymidine incorporation (keratinocyte proliferation); type: cell-based; conditions: for activity at 0.001 µM / activity at 0.01 µM / activity at 1 µM / activity at 0.1 µM: Homo sapiens, Keratinocyte, 24 h; for activity at 1 µM: 10^-6 M; for activity at 0.1 µM: 10^-7 M
Outline: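 Neonatal foreskin keratinocytes (second passage, serum-free medium) were plated at 40,000 cells/well and grown to 60–70% confluence. Compounds were added in triplicate 24 h after a medium change, with 1 μCi 3H-thymidine 4 h later, followed by a further 24 h incubation. TCA-precipitated label was counted by liquid scintillation and expressed as DPM/μg protein.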

[1] = system: TGase I (keratinocyte transglutaminase level); test: Transglutaminase (TGase I) ELISA assay (keratinocyte differentiation); type: cell-based, human
Outline: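 Neonatal foreskin keratinocytes plated at 3,000 cells/well, treated with compounds after 4 days for 72 h, then freeze-fractured. TGase I measured by ELISA (mouse anti-human TGase primary, peroxidase anti-mouse secondary, o-phenylene diamine substrate, A492). Secondary-only background was subtracted; values are means ±s.d. of replicates.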

[2] = Table 7A, n = 9, read-out: mean Thymidine incorp/μg protein ± s.d
[3] = Table 7A, n = 9, read-out: thymidine incorporation, % control

Structure (SMILES): CCCCC/C=C\C/C=C\CCCCCCCC(=O)N(CCO)CCO [linoleoyl-DEA, Linoleoyl-Diethanolamide]
- activity at 0.001 µM (Human keratinocytes; Table 2A, RA, ROH 2.5 × 10^-8 M, linoleoyl-DEA 10^-9 M, alone or combined, n = 9, read-out: thymidine incorporation, % control): 105%
- activity at 0.001 µM (Human keratinocytes; Table 2A, RA, ROH 2.5 × 10^-8 M, linoleoyl-DEA 10^-9 M, alone or combined, normalized to ethanol control, n = 9, read-out: mean Thymidine incorp./μg protein ± s.d): 105 ± 15.8%
- activity at 0.01 µM (Human keratinocytes; Table 3A, RA 2.5 × 10^-9 M, RP 2.5 × 10^-7 M, linoleoyl-DEA 10^-8 M, alone or combined, n = 3, read-out: thymidine incorporation, % control): 99%
- activity at 1 µM (Human keratinocytes; [2]): 60.7 ± 8%
- activity at 1 µM (Human keratinocytes; [3]): 61%
- activity at 0.1 µM (Human keratinocytes; [2]): 101 ± 7.5%
- activity at 0.1 µM (Human keratinocytes; [3]): 101%
- activity at 0.01 µM (Human keratinocytes; Table 7A, 10^-8 M, n = 9, read-out: mean Thymidine incorp/μg protein ± s.d): 114 ± 20.6%
- activity at 0.01 µM (Human keratinocytes; Table 7A, 10^-8 M, n = 9, read-out: thymidine incorporation, % control): 114%
- activity at 0.001 µM (Human keratinocytes; Table 7A, 10^-9 M, n = 9, read-out: mean Thymidine incorp/μg protein ± s.d): 105 ± 15.8%
- activity at 0.001 µM (Human keratinocytes; Table 7A, 10^-9 M, n = 9, read-out: thymidine incorporation, % control): 105%
- mean Thymidine incorp./μg protein ± s.d (Human keratinocytes; Table 3A, RA 2.5 × 10^-9 M, RP 2.5 × 10^-7 M, linoleoyl-DEA 10^-8 M, alone or combined, n = 3): 1692 ± 48 DPM/μg protein
- effect on keratinocyte proliferation, in words (Human keratinocytes; concentrations as in the respective Example): minor, non-significant stimulatory effect on keratinocyte proliferation; also recorded: no effect on keratinocyte proliferation
- activity at 1 µM ([1]; Homo sapiens, Keratinocyte, 72 h, Table 2B, RA, ROH 2.5 × 10^-7 M, linoleoyl-DEA 10^-6 M, alone or combined, 72 h, n = 9, read-out: TGase (TG1) level, % control): 59%
- activity at 1 µM ([1]; Homo sapiens, Keratinocyte, Table 3B, RA, RP 2.5 × 10^-7 M, linoleoyl-DEA 10^-6 M, alone or combined, n = 3, read-out: TGase (TG1) level, % control): 85%
- activity at 1 µM ([1]; Homo sapiens, Keratinocyte, Table 8A, 10^-6 M, n = 3, read-out: TGase, % control): 87%
- activity at 0.1 µM ([1]; Homo sapiens, Keratinocyte, Table 8A, 10^-7 M, n = 3, read-out: TGase, % control): 80%
- activity at 0.01 µM ([1]; Homo sapiens, Keratinocyte, Table 8A, 10^-8 M, n = 3, read-out: TGase, % control): 86%
- activity at 0.001 µM ([1]; Homo sapiens, Keratinocyte, Table 8A, 10^-9 M, n = 3, read-out: TGase, % control): 85%
- activity at 1 µM ([1]; Homo sapiens, Keratinocyte, Table 8B, 10^-6 M, n = 3, read-out: TGase, % control): 37%
- activity at 0.0001 µM ([1]; Homo sapiens, Keratinocyte, Table 8B, 10^-10 M, n = 3, read-out: TGase, % control): 66%
- mean TGase ± s.d ([1]; Table 2B, RA, ROH 2.5 × 10^-7 M, linoleoyl-DEA 10^-6 M, alone or combined, 72 h, normalized to ethanol control, n = 9): 0.594 ± 0.773
- mean TGase ± s.d ([1]; Table 3B, RA, RP 2.5 × 10^-7 M, linoleoyl-DEA 10^-6 M, alone or combined, n = 3): 0.186 ± 0.058
- mean TGase ± s.d ([1]; Table 8A, 10^-6 M, n = 3): 0.186 ± 0.058
- mean TGase ± s.d ([1]; Table 8A, 10^-7 M, n = 3): 0.175 ± 0.059
- mean TGase ± s.d ([1]; Table 8A, 10^-8 M, n = 3): 0.188 ± 0.046
- mean TGase ± s.d ([1]; Table 8A, 10^-9 M, n = 3): 0.185 ± 0.031
- mean TGase ± s.d ([1]; Table 8B, 10^-6 M, n = 3): 0.037 ± 0.008
- mean TGase ± s.d ([1]; Table 8B, 10^-10 M, n = 3): 0.080 ± 0.030
